Where a name gives a salt, the structure may show the parent alone.
How the values were obtained:
[1] = tested on: rat fetal retinal nerve cells in culture; test: Death of rat fetal retinal nerve cells in culture induced by glutamate addition (trypan blue dye exclusion); type: cell-based; conditions: 10 min, then 1 h drug-free, average
Protocol: (1) The action of the α1 receptor blocker on the death of rat fetal retinal nerve cells in culture as induced by glutamate addition
Retinal cells were taken out of a rat fetus (age of E18 days) and isolated, then cultured in an Eagle's basal culture medium containing 10% bovine fetus serum on a polyethylene imine-coated plastic cover slip for 7 days (37° C., 5% CO2/95% air). On the eighth day and thereafter, the cells were cultured in an Eagle's basal culture medium containing 10% horse serum. On the sixth day of the cultivation, cytosine arabinoside (10 μM) was added to suppress the growth of non-neuronal cells. On the eleventh day of the cultivation, the cells were cultured in a serum-free Eagle's basal culture medium supplemented with glutamate (1 mM) and an a, receptor blocker, for 10 minutes. Then, the cells were transferred to a serum-free Eagle's basic culture medium with no content of glutamate and an α1 receptor blocker, and cultured for one hour. Subsequently, toxicity was determined by the trypan blue dye exclusion method. Specifically, the cells were stained with 1.5% trypan blue solution for 10 minutes, fixed in 10% neutral formalin solution and rinsed with physiological saline. Subsequently, the cells were counted with a phase contrast microscope. The cells stained with trypan blue were defined as dead cells, while the cells never stained were defined as live cells. Based on the rate of the live cells to the total cells (200 or more), the survival rate of the culture cells was determined. A group with the addition of 1 mM glutamate alone and a group with the addition of both 1 mM glutamate and an α1 receptor blocker were defined as “1 mM glutamate single-addition group” and “group of 1 mM glutamate+α1 receptor blocker addition”, respectively. […] At this experiment, bunazosin hydrochloride, prazosin hydrochloride, terazosin hydrochloride and naftopidil hydrochloride were used as such α1 receptor blockers.

[2] = tested on: rat fetal retinal nerve cells in culture; test: Death of rat fetal retinal nerve cells in culture induced by serum elimination (trypan blue dye exclusion; TUNEL method); type: cell-based; design: dose or concentration left out as unconfirmed; conditions: serum elimination + test compound, 24 hours, average
Protocol: (2) The action of the a, receptor blocker on the death of rat fetal retinal nerve cells in culture as induced by serum elimination
Retinal cells were taken out of a rat fetus (age of E18 days) and isolated, then cultured in an Eagle's basal culture medium containing 10% bovine fetus serum on a polylysine-coated glass cover slip for 7 days (37° C., 5% CO2/95% air). On the eighth day and thereafter, the cells were cultured in an Eagle's basal culture medium containing 10% horse serum. On the sixth day of the cultivation, cytosine arabinoside (10 μM) was added to suppress the growth of non-neuronal cells. […] Subsequently, toxicity was determined by the trypan blue dye exclusion method. Specifically, the cells were stained with 1.5% trypan blue solution for 10 minutes, fixed in 10% neutral formalin solution and rinsed with physiological saline. Subsequently, the cells were counted with a phase contrast microscope. […] Based on the rate of the live cells to the total cells (200 or more), the survival rate of the culture cells was determined. Using the TUNEL method, additionally, the TUNEL-positive cells (apoptosis cells) increasing due to the serum elimination and the TUNEL-negative cells (live cells) were counted, to calculate the rate of the TUNEL-positive cells to the total cells. […]

[3] = 1 mM glutamate + 10 μM test compound
[4] = 1 mM glutamate + 0.1 μM test compound

CCCC(=O)N1CCCN(c2nc(N)c3cc(OC)c(OC)cc3n2)CC1 [bunazosin HCl, bunazosin hydrochloride]
Survival rate (%) of retinal nerve cells in culture [1, 3]: 55.2%
Survival rate (%) of retinal nerve cells in culture ([1]; 1 mM glutamate + 100 μM test compound): 55.9%
Rate (%) of TUNEL-positive cells ([2]; TUNEL method): 13%
Survival rate (%) of retinal nerve cells in culture [2]: 80%

COc1ccccc1N1CCN(CC(O)COc2cccc3ccccc23)CC1 (stereo not shown) [naftopidil HCl, naftopidil hydrochloride]
Survival rate (%) of retinal nerve cells in culture [1, 4]: 59.2%
Survival rate (%) of retinal nerve cells in culture [1, 3]: 68.9%

COc1cc2nc(N3CCN(C(=O)c4ccco4)CC3)nc(N)c2cc1OC [prazosin HCl, prazosin hydrochloride]
Survival rate (%) of retinal nerve cells in culture ([1]; 1 mM glutamate + 1 μM test compound): 65.2%
Survival rate (%) of retinal nerve cells in culture [1, 3]: 67.1%

COc1cc2nc(N3CCN(C(=O)C4CCCO4)CC3)nc(N)c2cc1OC (stereo not shown) [terazosin HCl, terazosin hydrochloride]
Survival rate (%) of retinal nerve cells in culture ([1]; 1 mM glutamate + 0.01 μM test compound): 69.8%
Survival rate (%) of retinal nerve cells in culture [1, 4]: 70.7%

— patent publication US20040192699A1, “Optic nerve protecting agents containing alpha1 receptor blocker as active ingredient” (Santen Pharmaceutical Co., Ltd., priority 2001, published 2004)
